Measurements as given in patent US20160143926A1, “COMPOSITIONS AND METHODS FOR THE PREPARATION OF KIDNEY PROTECTIVE AGENTS COMPRISING AMIFOSTINE AND AMINO ACIDS” (priority 2013, published 2016).
Where “and” joins values, the source holds several entries; their conditions need not be identical. Equal values may be shown once. Read-outs that look alike come from different tables or passages of the source.

Legend:
kidneys [1] = assay: Kidney protection / 68Ga-DOTATATE uptake in the kidneys, biodistribution studies in mice; type: in vivo; conditions: Amifostine alone at a dose of 0.63 mg/ml, co-administrated with 68Ga-DOTATATE
Method: The first i.v. injection of the composition may be scheduled 30 min prior to 68Ga-DOTATATE administration, while the next two injections may be performed at 15 min and 60 min, respectively, after the radiopeptide administration.
Kidney protection effects of Lysine-Arginine (12.4 mg/ml and 12.5 mg/ml, respectively) and commercially available Clinisol® and Gelofusine co-injected with ^68Ga-DOTATATE (40 uCi) are determined based on biodistribution studies in mice. Lysine-Arginine, Clinisol® and Gelofusine solutions were used as positive controls to determine the efficacies of compositions in accordance with embodiments of the invention.
Mice (n=5/group, male 6-8 weeks old) were given tail intravenous injection (200 ul) of respective solutions, 30 min prior to the administration of ^68Ga-DOTATATE, followed by further injections at 15 min and 1 hr post injection. An example of application schedule is illustrated in FIG. 1.
Mice were then sacrificed by CO2 asphyxiation, and kidneys were collected to determine the amounts of radiation absorbed, which are then compared to the total injected radioactive doses.
Mice (n=5/group, male 6-8 weeks old) were given tail intravenous injection (200 ul) of respective solutions, 30 min prior to the administration ^68Ga-DOTATATE, followed by further injections 15 min and 1 hr post injection, as described in Example 1.

kidneys [2] = conditions: rats, intravenous co-injection of 400 mg/kg with 111In-DTPA-octretide; cited from earlier work
kidneys [3] = conditions: patients, 111In-DTPA-octretreotide, cited from earlier work

## NCCCNCCSP(=O)(O)O [Amifostine]
Kidneys [1]
  kidney protection, Amifostine used alone: 12.24% and 12.2%

## NCCCC[C@H](N)C(=O)O [L-Lysine]
Kidneys [2]
  kidney protection: 40%

## NCCCC[C@H](N)C(=O)O [lysine]
Kidneys [3]; 25 g of lysine
  kidney protection: 17%±9%
Kidneys [3]; infusion of 75 g of lysine
  kidney protection: 44%±11%
